Tests used:
[1] = system: cortical epithelial (HRCE) cells; assay: Cell Titer Glow viability assay, HRCE cells; type: cell-based, human; conditions: 48 hours
Method: (§1) Considering the anticipated safety profile of a human plasma protein, toxicity of DFO and transferrins (majority Apo, majority Holo and mixtures) was assessed in primary human kidney cells. The renal proximal tubule epithelial (RPTEC) or cortical epithelial (HRCE) cells were treated with the indicated concentrations of majority ApoTf or DFO for 48 hours (FIG. 11A); and RPTEC or HRCE cells were treated for 72 hrs with 4 mg/mL of majority ApoTf, majority HoloTf, mixtures of transferrin (FIG. 11B). After 48 or 72 hours, cells were subjected to a Cell Titer Glow viability assay. Control cells, untreated cells, were set to a value of 100% viable. The average viability and standard deviations are shown for each treatment condition.

[2] = system: renal proximal tubule epithelial (RPTEC) cells; assay: Cell Titer Glow viability assay, RPTEC cells; type: cell-based, human; conditions: 48 hours
Method: as §1

CC(=O)N(O)CCCCCNC(=O)CCC(=O)N(O)CCCCCNC(=O)CCC(=O)N(O)CCCCCN [DFO, deferoxamine, reference compound]
toxicity (cell viability) [1]: significant toxicity | toxicity (cell viability) [2]: significant toxicity
